Measurements: patent US20090297534A1, “Catalytic Immunoglobulins BBK32 and Uses Therefor” (priority 2005, published 2009)
Each block holds one molecule with its values, some of them ahead of it. Where no end group is shown, it is not given here.

How the values were obtained:
IgA = type: biochemical, human
IgM Yvo = test: Irreversible binding of biotinylated phosphonate by IgM Yvo; settings: probe 500 μM; IgM Yvo 0.1 μM
IgA (serum and salivary) = test: Phosphonate binding: irreversible adducts with IgA, SDS-electrophoresis, streptavidin-peroxidase; settings: reducing SDS-gels after heating (100° C., 5 min)
Monoclonal IgA (ID 2582) = test: Stoichiometry / active site titration of monoclonal IgA with phosphonate; type: biochemical, human; settings: for x-intercept of residual activity (%) versus [inhibitor]/[IgA] plot: monoclonal IgA 2582 preincubated 18 h with 2.5-20 μM inhibitor, Glu-Ala-Arg-AMC 0.4 mM
[1] = tested on: IgA catalyzed gp120 cleavage (salivary IgA, serum IgA); test: Inhibition of IgA catalyzed gp120 cleavage; type: biochemical, human
Procedure: Values are means of duplicates.
FIG. 20B depicts streptavidin-peroxidase stained SDS-gel blots (reducing conditions) showing Bt-gp120 (0.1 μM) incubated in diluent (lane 1) and monoclonal IgA (80 μg/ml, from multiple myeloma subject 2582) in the absence (lane 2) or presence of Glu-Ala-Arg-AMC (lane 3; 0.2 mM). […] FIG. 20C is EP-hapten 3 which is the non-biotinylated version of EP-hapten 1.
In some experiments, the cleavage rate was expressed as the intensity of the 55 kD product band (in AVU, corrected for background intensity observed in reaction mixtures of gp120 incubated in diluent instead of Ab). For cleavage site determination, gp120 was incubated with IgA (pooled from subject codes 2288-2291), the IgA was removed by binding to an anti-human IgA column as described above, and the unbound fraction was lyophilized and redissolved in SDS-electrophoresis buffer containing 2-mercaptoethanol. The gp120 fragments in PVDF blots of SDS-gels were stained with Coomassie blue and subjected to N-terminal sequencing as described previously (33).

[2] = tested on: HIV neutralizing activity of CIVIG / IgA; test: Inhibition of immunoglobulin-mediated HIV neutralization by electrophilic peptide; type: cell-based, HIV-1; settings: 100 μM; for Effect on HIV neutralizing activity of serum IgA: 0.5 h preincubation, IgA 2 μg/ml
Procedure: CIVIGm (FIG. 10A) and CIVGa (FIG. 10B) were incubated for 30 min with gp120 peptide-CRA (100 μM) or diluent, and the residual neutralization activity was determined as in FIG. 9 (CIVIGm, 10 μg/mL; CIVGa, 2 μg/mL).
HIV-1 strain, 97ZA009; host cells, phytohemagglutinin-stimulated PBMCs. Abs were incubated with the virus for 24 h. Values are expressed as percent reduction of p24 concentrations in test cultures compared to cultures that received diluent instead of the Abs (means±s.d. of 4 replicates). […] IgA purified from human serum (2 μg/ml) was preincubated (0.5 h) with EP-421-433 (100 μM), control EP-VIP or diluent, and the residual HIV neutralizing activity measured as in panel A. Data are expressed relative p24 levels observed in the absence of antibody. […] HIV was preincubated with the salivary or serum IgA for 1 h and the neutralizing activity measured as in FIG. 24A.
Covalently reactive analogs (CRAs) of polypeptides have been developed as probes for antibodies. CRAs contain an electrophilic phosphonate analog capable of irreversible binding to nucleophiles present in antibody combining sites. The covalent reaction occurs in coordination with noncovalent antigen-antibody binding, ensuring specificity, and permitting the use of peptidyl CRAs for irreversible and specific binding to the antibodies. One such peptidyl CRA reported is an analog of gp120 residues 421-433 containing the phosphonate at its C terminus (gp120 peptide CRA). This region of gp120 is a component of the superantigenic site of this protein. Neutralization of HIV-1 by CIVIGa and CIVIGm was inhibited by the gp120 peptide CRA, confirming that recognition of the gp120 superantigenic site is required for the neutralizing activity. FIGS. 10A-10B illustrate these findings. CIVIGm and CIVGa were preincubated with the gp120 peptide-CRA or diluent, and the residual neutralization activity was determined as in FIG. 9. An irrelevant peptide CRA, VIP-CRA was employed as the control reagent to rule out nonspecific effects. […]

[3] = 10 μM, bleed 2, conditions as FIG. 22B
[4] = increasing concentrations 10-100 μM

Molecule: N=C(N)c1ccc(C(NC(=O)CCCCCNC(=O)CCCC[C@@H]2SC[C@@H]3NC(=O)N[C@@H]32)P(=O)(Oc2ccccc2)Oc2ccccc2)cc1 (stereo partly shown) [1a, diphenyl N-(6-biotinamidohexanoyl)amino(4-amidinophenyl)methanephosphonate]
- IC50 (IgA): 37 ± 1 µM
- Inhibition of catalytic activity of serum IgA (IgA): inhibited the catalytic activity
- Irreversible reaction with IgM Yvo (IgM Yvo): reacts irreversibly
- Formation of irreversible adducts with IgA (IgA (serum and salivary)): dominant ˜60 kD 1a-adduct of the heavy chain
- Formation of irreversible adducts with IgA (IgA (serum and salivary); listed as EP-hapten 1): formed adducts

Molecule: N=C(N)c1ccc(C(NC(=O)OCc2ccccc2)P(=O)(Oc2ccccc2)Oc2ccccc2)cc1 (stereo not shown) [1b, diphenyl N-(benzyloxycarbonyl)amino(4-amidinophenyl)methanephosphonate]
- x-intercept of residual activity (%) versus [inhibitor]/[IgA] plot (Monoclonal IgA (ID 2582)): 2.5
- x-intercept of residual activity (%) versus [inhibitor]/[IgA] plot (Monoclonal IgA (ID 2582); listed as EP-hapten 3): 2.4
- Inhibitor needed for complete inhibition of 1 mole IgA (Monoclonal IgA (ID 2582); monoclonal IgA, Glu-Ala-Arg-AMC substrate): 2.4 mol

- Irreversible reaction with IgM Yvo (IgM Yvo): does not react appreciably
Molecule: N=C(N)c1ccc(C(NC(=O)CCCCCNC(=O)CCCC[C@@H]2SC[C@@H]3NC(=O)N[C@@H]32)P(=O)(O)O)cc1 (stereo partly shown) [hapten 2, N-(6-biotinamidohexanoyl)amino(4-amidinophenyl)methanephosphonic acid]
- Formation of irreversible adducts with IgA (IgA (serum and salivary)): did not inhibit IgA-catalyzed gp120 cleavage or form adducts

Molecule: EP-421-433: gp120 residues 421-431 with the amidinophosphonate mimetic of residues 432-433 at the C-terminus (KQIINMWQEVG; not fully specified (C-terminus); printed as Lys-Gln-Ile-Ile-Asn-Met-Trp-Gln-Glu-Val-Gly)
- % inhibition of gp120 cleavage by IgA of SP subject 2097 [1, 3]: 89±6%
- % inhibition of gp120 cleavage by IgA of SP subject 2098 [1, 3]: 94±12%
- Inhibition of cleavage of Bt-gp120 by salivary IgA [1, 4]: 21-85%
- Inhibition of cleavage of Bt-gp120 by serum IgA [1, 4]: 41-91%
- Inhibition of HIV-1 neutralization by CIVIGa and CIVIGm ([2]; 30 min preincubation, CIVIGm 10 μg/mL, CIVGa 2 μg/mL): inhibited
- Effect on HIV neutralizing activity of serum IgA [2]: inhibited the neutralizing activity
- Formation of irreversible adducts with IgA (IgA (serum and salivary)): superior irreversible binding

Molecule: EP-VIP: VIP containing the amidinophosphonate at Lys20 side chain; control electrophilic peptide
- % inhibition of gp120 cleavage by IgAs of SP subjects 2097 and 2098 ([1]; equivalent concentration (10 μM) of control probe): < 15%
- Effect on HIV neutralizing activity of serum IgA [2]: minimally influenced
